Settings: Liquid, Vibrating tube method

CCCC(=O)OCC(COC(=O)CCC)(COC(=O)CCC)COC(=O)CCC [pentaerythritol tetrabutyrate]
Settings | mass density [kg/m3]
303.16 K, 34848 kPa | 1063.1
303.17 K, 281.6 kPa | 1042.3
303.17 K, 295.5 kPa | 1042.4
303.17 K, 308.6 kPa | 1042.3
303.17 K, 338.6 kPa | 1042.4
303.17 K, 356.5 kPa | 1042.4
303.17 K, 372.3 kPa | 1042.3
303.17 K, 389.7 kPa | 1042.4
303.17 K, 409.5 kPa | 1042.4
303.17 K, 424.5 kPa | 1042.4
303.17 K, 439.6 kPa | 1042.5
303.17 K, 457.1 kPa | 1042.5
303.17 K, 488.2 kPa | 1042.3
303.17 K, 509.3 kPa | 1042.5
303.17 K, 526.8 kPa | 1042.6
303.17 K, 1268.4 kPa | 1043
303.17 K, 1312 kPa | 1043
303.17 K, 1333.8 kPa | 1043
303.17 K, 2851.4 kPa | 1044.1
303.17 K, 2920.2 kPa | 1044.1
303.17 K, 4808.4 kPa | 1045.3
303.17 K, 4819 kPa | 1045.4
303.17 K, 4825.7 kPa | 1045.3
303.17 K, 4829.2 kPa | 1045.3
303.17 K, 4830.8 kPa | 1045.2
303.17 K, 4832.3 kPa | 1045.3
303.17 K, 4834.4 kPa | 1045.4
303.17 K, 4836 kPa | 1045.4
303.17 K, 4837.7 kPa | 1045.4
303.17 K, 4839.2 kPa | 1045.4
303.17 K, 4840.6 kPa | 1045.4
303.17 K, 4842.7 kPa | 1045.3
303.17 K, 6518.3 kPa | 1046.5
303.17 K, 6547.8 kPa | 1046.4
303.17 K, 6572.5 kPa | 1046.5
303.17 K, 7027.7 kPa | 1046.8
303.17 K, 7057 kPa | 1046.7
303.17 K, 7087.6 kPa | 1046.8
303.17 K, 7117.6 kPa | 1046.7
303.17 K, 7147.4 kPa | 1046.8
303.17 K, 7177.7 kPa | 1046.9
303.17 K, 7213.5 kPa | 1046.9
303.17 K, 7243.4 kPa | 1046.9
303.17 K, 8394.2 kPa | 1047.6
303.17 K, 8419.6 kPa | 1047.7
303.17 K, 8440.8 kPa | 1047.7
303.17 K, 8462 kPa | 1047.7
303.17 K, 8485.6 kPa | 1047.7
303.17 K, 9218.9 kPa | 1048
303.17 K, 34670 kPa | 1063
303.17 K, 34730 kPa | 1063.1
303.17 K, 34780 kPa | 1063.1
303.17 K, 34833 kPa | 1063.2
323.14 K, 3021.5 kPa | 1026.7
323.14 K, 3045.8 kPa | 1026.8
323.14 K, 3074.9 kPa | 1026.9
323.14 K, 3099.4 kPa | 1026.9
323.14 K, 3124.1 kPa | 1027
323.14 K, 3153.6 kPa | 1026.9
323.14 K, 3179.3 kPa | 1026.9
323.14 K, 3204.7 kPa | 1027
323.14 K, 3230.2 kPa | 1027
323.14 K, 3262.8 kPa | 1027.1
323.14 K, 3289.7 kPa | 1027
323.14 K, 3316.7 kPa | 1027.2
323.14 K, 3376.7 kPa | 1027.2
323.14 K, 3404.8 kPa | 1027.3
323.14 K, 3432.9 kPa | 1027.2
323.14 K, 3526.4 kPa | 1027.4
323.14 K, 3592.6 kPa | 1027.3
323.14 K, 3622.8 kPa | 1027.3
323.14 K, 3654 kPa | 1027.4
323.14 K, 3691.9 kPa | 1027.4
323.14 K, 3723.3 kPa | 1027.5
323.14 K, 3755.5 kPa | 1027.4
323.14 K, 3794.3 kPa | 1027.5
323.14 K, 3827.2 kPa | 1027.5
323.14 K, 3860.3 kPa | 1027.6
323.14 K, 3900.3 kPa | 1027.7
323.14 K, 3935 kPa | 1027.6
323.14 K, 3969.1 kPa | 1027.6
323.14 K, 4004.6 kPa | 1027.7
323.14 K, 4047.6 kPa | 1027.8
323.14 K, 4083.9 kPa | 1027.7
323.14 K, 4121.4 kPa | 1027.7
323.14 K, 4159.5 kPa | 1027.8
323.14 K, 4204 kPa | 1027.8
323.14 K, 4241.5 kPa | 1027.9
323.14 K, 4280.5 kPa | 1028
323.14 K, 4319.3 kPa | 1027.9
323.14 K, 4366.4 kPa | 1028
323.14 K, 4406.1 kPa | 1028
323.14 K, 4447.6 kPa | 1028.1
323.14 K, 4495.9 kPa | 1028
323.14 K, 4536.6 kPa | 1028.2
323.14 K, 4587.3 kPa | 1028.3
323.14 K, 4629.9 kPa | 1028.2
323.14 K, 4673.5 kPa | 1028.3
323.14 K, 4708.8 kPa | 1028.3
323.14 K, 4783.8 kPa | 1028.3
323.14 K, 4863.6 kPa | 1028.4
323.14 K, 4981.8 kPa | 1028.4
323.14 K, 5097.9 kPa | 1028.7
323.14 K, 5295.3 kPa | 1028.8
323.14 K, 5295.4 kPa | 1028.7
323.14 K, 5295.6 kPa | 1028.8
323.14 K, 5487.4 kPa | 1028.9
323.14 K, 5504.7 kPa | 1029
323.14 K, 5543.7 kPa | 1028.9
323.14 K, 12307 kPa | 1033.8
323.14 K, 12337 kPa | 1033.7
323.14 K, 14077 kPa | 1034.9
323.14 K, 14107 kPa | 1034.9
323.14 K, 14132 kPa | 1034.8
323.14 K, 14159 kPa | 1034.9
323.14 K, 14184 kPa | 1035
323.14 K, 14777 kPa | 1035.3
323.14 K, 16272 kPa | 1036.3
323.14 K, 16347 kPa | 1036.3
323.14 K, 16415 kPa | 1036.4
323.14 K, 16456 kPa | 1036.4
323.14 K, 16491 kPa | 1036.5
323.14 K, 16525 kPa | 1036.4
323.14 K, 16567 kPa | 1036.5
323.14 K, 16603 kPa | 1036.5
323.14 K, 16638 kPa | 1036.5
323.14 K, 16681 kPa | 1036.6
323.14 K, 16716 kPa | 1036.5
323.14 K, 16912 kPa | 1036.7
323.14 K, 16948 kPa | 1036.8
323.14 K, 16993 kPa | 1036.8
323.14 K, 17030 kPa | 1036.8
323.14 K, 17069 kPa | 1036.8
323.14 K, 17108 kPa | 1036.7
323.14 K, 17153 kPa | 1036.9
323.14 K, 17191 kPa | 1037
323.14 K, 17229 kPa | 1036.9
323.14 K, 17267 kPa | 1036.9
323.14 K, 17315 kPa | 1036.9
323.14 K, 17354 kPa | 1036.9
323.14 K, 17394 kPa | 1037
323.14 K, 17441 kPa | 1037.1
323.14 K, 17476 kPa | 1037
323.14 K, 17519 kPa | 1037.1
323.14 K, 17554 kPa | 1037.2
323.14 K, 17593 kPa | 1037
323.14 K, 17628 kPa | 1037.1
